Test results: patent publication US10494355B2, “Oxadiazole amine derivative compounds as histone deacetylase 6 inhibitor, and the pharmaceutical composition comprising the same” (Chong Kun Dang Pharmaceutical Corp., priority 2015, dated 2019)

How the values were obtained:
human recombinant HDAC6 = molecular target: T1, human recombinant HDAC6 (Homo sapiens, UniProt Q9UBN7); experiment: HDAC6 enzyme activity inhibition assay (HDAC Fluorimetric Drug Discovery Kit); type: biochemical; details: 30° C. 60 minutes
T1 construct: purchased Calbiochem 382180
T1 sequence (Q9UBN7 1-1215): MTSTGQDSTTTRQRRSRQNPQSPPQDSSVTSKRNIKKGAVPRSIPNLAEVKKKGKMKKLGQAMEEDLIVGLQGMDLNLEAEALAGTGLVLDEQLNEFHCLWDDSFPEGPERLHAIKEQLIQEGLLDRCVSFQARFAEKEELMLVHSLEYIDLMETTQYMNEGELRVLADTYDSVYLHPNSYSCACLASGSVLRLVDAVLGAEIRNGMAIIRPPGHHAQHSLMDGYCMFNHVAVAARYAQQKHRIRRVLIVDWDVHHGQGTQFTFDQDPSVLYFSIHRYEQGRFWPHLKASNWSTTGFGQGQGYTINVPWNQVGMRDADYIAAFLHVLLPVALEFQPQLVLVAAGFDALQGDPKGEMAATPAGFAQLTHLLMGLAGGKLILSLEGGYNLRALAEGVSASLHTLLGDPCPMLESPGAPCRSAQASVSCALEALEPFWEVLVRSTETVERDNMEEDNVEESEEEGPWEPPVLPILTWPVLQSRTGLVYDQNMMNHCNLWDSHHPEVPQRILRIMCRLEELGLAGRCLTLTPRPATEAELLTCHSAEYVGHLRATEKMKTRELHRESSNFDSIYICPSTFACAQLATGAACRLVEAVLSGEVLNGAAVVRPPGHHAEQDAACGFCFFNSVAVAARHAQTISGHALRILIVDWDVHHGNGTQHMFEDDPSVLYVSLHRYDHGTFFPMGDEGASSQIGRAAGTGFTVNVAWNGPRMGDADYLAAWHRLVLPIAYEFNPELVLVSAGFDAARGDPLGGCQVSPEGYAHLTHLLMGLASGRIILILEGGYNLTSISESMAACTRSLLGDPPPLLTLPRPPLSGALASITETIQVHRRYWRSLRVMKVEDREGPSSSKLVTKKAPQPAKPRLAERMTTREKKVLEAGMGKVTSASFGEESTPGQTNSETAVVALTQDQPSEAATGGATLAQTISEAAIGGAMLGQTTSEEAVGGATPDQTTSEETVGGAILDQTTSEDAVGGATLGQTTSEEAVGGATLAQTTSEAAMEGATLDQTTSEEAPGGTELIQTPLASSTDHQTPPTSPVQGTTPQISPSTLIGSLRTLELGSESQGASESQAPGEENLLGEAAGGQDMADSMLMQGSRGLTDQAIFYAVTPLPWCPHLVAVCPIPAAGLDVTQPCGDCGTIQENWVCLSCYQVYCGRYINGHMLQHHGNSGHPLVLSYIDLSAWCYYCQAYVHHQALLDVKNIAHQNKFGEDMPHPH
Outline: (§1)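 Both isoforms are run by an identical fluorimetric protocol: deacetylation of 10 μM Fluor de Lys-SIRT1 substrate by 0.3 μg recombinant enzyme over 60 min at 30° C, in the presence of 5-fold compound dilutions. Signal is developed for 30 min and read at Ex 360/Em 460 to derive IC50.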

human recombinant HDAC1 = molecular target: T2, human recombinant HDAC1 (Homo sapiens, UniProt Q13547); experiment: HDAC1 enzyme activity inhibition assay (HDAC Fluorimetric Drug Discovery Kit); type: biochemical; details: human recombinant HDAC1, 10 μM substrate, 30° C. 60 minutes
T2 construct: purchased Enzo Life Science BML-SE456
Outline: as §1

T2 sequence (Q13547 whole entry): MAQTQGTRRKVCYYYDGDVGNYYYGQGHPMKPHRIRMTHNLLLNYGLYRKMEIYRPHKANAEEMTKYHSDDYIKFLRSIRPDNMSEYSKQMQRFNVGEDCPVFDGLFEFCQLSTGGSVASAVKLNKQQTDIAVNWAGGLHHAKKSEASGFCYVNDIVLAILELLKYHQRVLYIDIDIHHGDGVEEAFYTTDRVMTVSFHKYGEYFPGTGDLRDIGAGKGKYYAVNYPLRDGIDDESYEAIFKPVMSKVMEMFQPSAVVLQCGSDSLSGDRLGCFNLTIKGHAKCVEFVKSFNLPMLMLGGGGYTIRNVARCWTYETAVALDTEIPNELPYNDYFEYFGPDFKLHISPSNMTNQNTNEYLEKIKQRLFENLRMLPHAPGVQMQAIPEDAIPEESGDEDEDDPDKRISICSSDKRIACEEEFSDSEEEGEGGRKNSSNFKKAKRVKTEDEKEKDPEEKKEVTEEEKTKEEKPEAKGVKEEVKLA

Fc1ccc(C2(Nc3ncc(-c4nnc(C(F)F)o4)cn3)CCC2)c(F)c1 [Compound 2027, 5-(5-(difluoromethyl)-1,3,4-oxadiazol-2-yl)-N-(1-(2,4-difluorophenyl)cyclobutyl)pyrimidin-2-amine]
IC50 (human recombinant HDAC6): 90 nM
IC50 (human recombinant HDAC1): > 10000 nM

FC(F)c1nnc(-c2cnc(NC3(c4ccccc4OC(F)(F)F)CCC3)nc2)o1 [Compound 2028, 5-(5-(difluoromethyl)-1,3,4-oxadiazol-2-yl)-N-(1-(2-(trifluoromethoxy)phenyl)cyclobutyl)pyrimidin-2-amine]
IC50 (human recombinant HDAC6): 302 nM
IC50 (human recombinant HDAC1): > 10000 nM

FC(F)c1nnc(-c2cnc(NC3(Cc4ccccc4)CCC3)nc2)o1 [Compound 2030, N-(1-benzylcyclobutyl)-5-(5-(difluoromethyl)-1,3,4-oxadiazol-2-yl)pyrimidin-2-amine]
IC50 (human recombinant HDAC6): 758 nM
IC50 (human recombinant HDAC1): > 10000 nM

CN1CCC(c2ccc(C3(Nc4ncc(-c5nnc(C(F)F)o5)cn4)CCC3)cc2)CC1 [Compound 2035, 5-(5-(difluoromethyl)-1,3,4-oxadiazol-2-yl)-N-(1-(4-(1-methylpiperidin-4-yl)phenyl)cyclobutyl)pyrimidin-2-amine]
IC50 (human recombinant HDAC6): 367 nM
IC50 (human recombinant HDAC1): > 10000 nM

CCN1CCC(c2ccc(C3(Nc4ncc(-c5nnc(C(F)F)o5)cn4)CCC3)cc2)CC1 [Compound 2036, 5-(5-(difluoromethyl)-1,3,4-oxadiazol-2-yl)-N-(1-(4-(1-ethylpiperidin-4-yl)phenyl)cyclobutyl)pyrimidin-2-amine]
IC50 (human recombinant HDAC6): 478 nM
IC50 (human recombinant HDAC1): > 10000 nM

CC(C)N1CCC(c2ccc(C3(Nc4ncc(-c5nnc(C(F)F)o5)cn4)CCC3)cc2)CC1 [Compound 2037, 5-(5-(difluoromethyl)-1,3,4-oxadiazol-2-yl)-N-(1-(4-(1-isopropylpiperidin-4-yl)phenyl)cyclobutyl)pyrimidin-2-amine]
IC50 (human recombinant HDAC6): 397 nM
IC50 (human recombinant HDAC1): > 10000 nM

FC(F)c1nnc(-c2cnc(NC3(c4ccsc4)CCC3)nc2)o1 [Compound 2038, 5-(5-(difluoromethyl)-1,3,4-oxadiazol-2-yl)-N-(1-(thiophen-3-yl)cyclobutyl)pyrimidin-2-amine]
IC50 (human recombinant HDAC6): 111 nM
IC50 (human recombinant HDAC1): > 10000 nM

FC(F)c1nnc(-c2cnc(NC3(c4cccs4)CC3)nc2)o1 [Compound 2040, 5-(5-(difluoromethyl)-1,3,4-oxadiazol-2-yl)-N-(1-(thiophen-2-yl)cyclopropyl)pyrimidin-2-amine]
IC50 (human recombinant HDAC6): 100 nM
IC50 (human recombinant HDAC1): > 10000 nM

FC(F)c1nnc(-c2cnc(NC3(c4ccc(N5CCCCC5)cc4)CCC3)nc2)o1 [Compound 2041, 5-(5-(difluoromethyl)-1,3,4-oxadiazol-2-yl)-N-(1-(4-(piperidin-1-yl)phenyl)cyclobutyl)pyrimidin-2-amine]
IC50 (human recombinant HDAC6): 189 nM
IC50 (human recombinant HDAC1): > 10000 nM

FC(F)c1nnc(-c2cnc(NC3(c4ccccc4C(F)(F)F)CCC3)nc2)o1 [Compound 2042, 5-(5-(difluoromethyl)-1,3,4-oxadiazol-2-yl)-N-(1-(2-(trifluoromethyl)phenyl)cyclobutyl)pyrimidin-2-amine]
IC50 (human recombinant HDAC6): 173 nM
IC50 (human recombinant HDAC1): > 10000 nM

FC(F)c1nnc(-c2cnc(NC3(c4ccc(C(F)(F)F)cc4)CCC3)nc2)o1 [Compound 2043, 5-(5-(difluoromethyl)-1,3,4-oxadiazol-2-yl)-N-(1-(4-(trifluoromethyl)phenyl)cyclobutyl)pyrimidin-2-amine]
IC50 (human recombinant HDAC6): 277 nM
IC50 (human recombinant HDAC1): > 10000 nM

FC(F)(F)c1ccc(C2(Nc3ncc(-c4nnc(C(F)(F)F)o4)cn3)CCC2)cc1 [Compound 2044, 5-(5-(trifluoromethyl)-1,3,4-oxadiazol-2-yl)-N-(1-(4-(trifluoromethyl)phenyl)cyclobutyl)pyrimidin-2-amine]
IC50 (human recombinant HDAC6): 1740 nM
IC50 (human recombinant HDAC1): > 10000 nM

Fc1ccc(C2(Nc3ncc(-c4nnc(C(F)F)o4)cn3)CCC2)cc1F [Compound 2045, 5-(5-(difluoromethyl)-1,3,4-oxadiazol-2-yl)-N-(1-(3,4-difluorophenyl)cyclobutyl)pyrimidin-2-amine]
IC50 (human recombinant HDAC6): 61 nM
IC50 (human recombinant HDAC1): > 10000 nM

Fc1ccc(C2(Nc3ncc(-c4nnc(C(F)F)o4)cn3)CCC2)cc1N1CCOCC1 [Compound 2046, 5-(5-(difluoromethyl)-1,3,4-oxadiazol-2-yl)-N-(1-(4-fluoro-3-morpholinophenyl)cyclobutyl)pyrimidin-2-amine]
IC50 (human recombinant HDAC6): 329 nM
IC50 (human recombinant HDAC1): > 10000 nM

COc1ccccc1C1(Nc2ncc(-c3nnc(C(F)F)o3)cn2)CC1 [Compound 2047, 5-(5-(difluoromethyl)-1,3,4-oxadiazol-2-yl)-N-(1-(2-methoxyphenyl)cyclopropyl)pyrimidin-2-amine]
IC50 (human recombinant HDAC6): 32 nM
IC50 (human recombinant HDAC1): > 10000 nM

COc1cccc(C2(Nc3ncc(-c4nnc(C(F)F)o4)cn3)CC2)c1 [Compound 2048, 5-(5-(difluoromethyl)-1,3,4-oxadiazol-2-yl)-N-(1-(3-methoxyphenyl)cyclopropyl)pyrimidin-2-amine]
IC50 (human recombinant HDAC6): 63 nM
IC50 (human recombinant HDAC1): > 10000 nM

COc1ccc(C2(Nc3ncc(-c4nnc(C(F)F)o4)cn3)CC2)cc1 [Compound 2049, 5-(5-(difluoromethyl)-1,3,4-oxadiazol-2-yl)-N-(1-(4-methoxyphenyl)cyclopropyl)pyrimidin-2-amine]
IC50 (human recombinant HDAC6): 51 nM
IC50 (human recombinant HDAC1): > 10000 nM

FC(F)c1nnc(-c2cnc(NC3(c4cccc(Cl)c4)CC3)nc2)o1 [Compound 2050, N-(1-(3-chlorophenyl)cyclopropyl)-5-(5-(difluoromethyl)-1,3,4-oxadiazol-2-yl)pyrimidin-2-amine]
IC50 (human recombinant HDAC6): 26 nM
IC50 (human recombinant HDAC1): > 10000 nM

FC(F)(F)c1nnc(-c2cnc(NC3(c4cccc(Cl)c4)CC3)nc2)o1 [Compound 2051, N-(1-(3-chlorophenyl)cyclopropyl)-5-(5-(trifluoromethyl)-1,3,4-oxadiazol-2-yl)pyrimidin-2-amine]
IC50 (human recombinant HDAC6): 152 nM
IC50 (human recombinant HDAC1): > 10000 nM

FC(F)c1nnc(-c2cnc(NC3(c4ccc(Cl)cc4)CC3)nc2)o1 [Compound 2052, N-(1-(4-chlorophenyl)cyclopropyl)-5-(5-(difluoromethyl)-1,3,4-oxadiazol-2-yl)pyrimidin-2-amine]
IC50 (human recombinant HDAC6): 75 nM
IC50 (human recombinant HDAC1): > 10000 nM

FC(F)(F)c1nnc(-c2cnc(NC3(c4ccc(Cl)cc4)CC3)nc2)o1 [Compound 2053, N-(1-(4-chlorophenyl)cyclopropyl)-5-(5-(trifluoromethyl)-1,3,4-oxadiazol-2-yl)pyrimidin-2-amine]
IC50 (human recombinant HDAC6): 519 nM
IC50 (human recombinant HDAC1): > 10000 nM

Fc1cc(C2(Nc3ncc(-c4nnc(C(F)F)o4)cn3)CC2)ccc1Cl [Compound 2054, N-(1-(4-chloro-3-fluorophenyl)cyclopropyl)-5-(5-(difluoromethyl)-1,3,4-oxadiazol-2-yl)pyrimidin-2-amine]
IC50 (human recombinant HDAC6): 83 nM
IC50 (human recombinant HDAC1): > 10000 nM

Cc1ccccc1C1(Nc2ncc(-c3nnc(C(F)F)o3)cn2)CC1 [Compound 2055, 5-(5-(difluoromethyl)-1,3,4-oxadiazol-2-yl)-N-(1-(o-tolyl)cyclopropyl)pyrimidin-2-amine]
IC50 (human recombinant HDAC6): 31 nM
IC50 (human recombinant HDAC1): > 10000 nM

Fc1cc(Cl)ccc1C1(Nc2ncc(-c3nnc(C(F)F)o3)cn2)CC1 [Compound 2056, N-(1-(4-chloro-2-fluorophenyl)cyclopropyl)-5-(5-(difluoromethyl)-1,3,4-oxadiazol-2-yl)pyrimidin-2-amine]
IC50 (human recombinant HDAC6): 35 nM
IC50 (human recombinant HDAC1): > 10000 nM

Fc1cc(F)cc(C2(Nc3ncc(-c4nnc(C(F)F)o4)cn3)CC2)c1 [Compound 2057, 5-(5-(difluoromethyl)-1,3,4-oxadiazol-2-yl)-N-(1-(3,5-difluorophenyl)cyclopropyl)pyrimidin-2-amine]
IC50 (human recombinant HDAC6): 33 nM
IC50 (human recombinant HDAC1): > 10000 nM

Fc1ccc(C2(Nc3ncc(-c4nnc(C(F)F)o4)cn3)CC2)cc1F [Compound 2058, 5-(5-(difluoromethyl)-1,3,4-oxadiazol-2-yl)-N-(1-(3,4-difluorophenyl)cyclopropyl)pyrimidin-2-amine]
IC50 (human recombinant HDAC6): 39 nM
IC50 (human recombinant HDAC1): > 10000 nM

FC(F)c1nnc(-c2cnc(NC3(c4cccc(C5CCN(C6COC6)CC5)c4)CCC3)nc2)o1 [Compound 2060, 5-(5-(difluoromethyl)-1,3,4-oxadiazol-2-yl)-N-(1-(3-(1-(oxetan-3-yl)piperidin-4-yl)phenyl)cyclobutyl)pyrimidin-2-amine]
IC50 (human recombinant HDAC6): 221 nM
IC50 (human recombinant HDAC1): > 10000 nM
